Columns and labels:
[1] = system: xylene-induced ear swelling inflammation in mice; test: Xylene-induced ear swelling inflammation model in mice; type: in vivo, Kunming mice; conditions: Table 7 dose study
[2] = system: formalin-induced inflammatory pain in mice; test: Formalin-induced inflammatory pain model in mice; type: in vivo, Kunming mice; conditions: for pain response, second phasic response: dose study, Figure 15, compared with the model group
[3] = system: acetylation of α-tubulin and histone H3 in THP-1 cell; test: Western blot of acetylation of α-tubulin and histone H3 in THP-1 cell; type: cell-based; conditions: 1 μM and 2 μM, 24 h
[4] = target: T1, HsEH (Homo sapiens, UniProt P34913); test: fluorescent-based sEH assay with PHOME as substrate; type: biochemical
T1 sequence (P34913 1-555): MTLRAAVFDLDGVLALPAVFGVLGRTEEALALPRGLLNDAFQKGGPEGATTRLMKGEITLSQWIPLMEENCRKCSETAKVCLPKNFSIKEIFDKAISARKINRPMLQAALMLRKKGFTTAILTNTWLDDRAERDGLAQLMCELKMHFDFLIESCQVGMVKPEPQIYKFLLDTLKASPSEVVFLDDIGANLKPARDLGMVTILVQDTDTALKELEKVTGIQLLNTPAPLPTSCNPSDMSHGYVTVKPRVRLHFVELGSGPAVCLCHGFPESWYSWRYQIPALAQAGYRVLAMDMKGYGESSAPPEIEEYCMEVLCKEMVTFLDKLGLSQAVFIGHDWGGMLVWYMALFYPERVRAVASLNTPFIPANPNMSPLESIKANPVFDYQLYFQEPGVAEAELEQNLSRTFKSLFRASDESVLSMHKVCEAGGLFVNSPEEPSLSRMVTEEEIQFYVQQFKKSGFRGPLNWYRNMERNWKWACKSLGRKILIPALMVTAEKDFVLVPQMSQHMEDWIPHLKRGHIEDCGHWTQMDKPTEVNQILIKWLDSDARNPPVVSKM

[5] = system: LPS-induced RAW264.7 cells; test: Inflammatory factors and iNOS in LPS-induced RAW264.7 cells; type: cell-based
[6] = Acute toxicity test; conditions: in vivo
[7] = target: T2, HDAC11 (Homo sapiens, UniProt Q96DB2); test: HDAC enzyme-based fluorogenic assay, HDAC11; type: biochemical
T2 sequence (Q96DB2 1-347): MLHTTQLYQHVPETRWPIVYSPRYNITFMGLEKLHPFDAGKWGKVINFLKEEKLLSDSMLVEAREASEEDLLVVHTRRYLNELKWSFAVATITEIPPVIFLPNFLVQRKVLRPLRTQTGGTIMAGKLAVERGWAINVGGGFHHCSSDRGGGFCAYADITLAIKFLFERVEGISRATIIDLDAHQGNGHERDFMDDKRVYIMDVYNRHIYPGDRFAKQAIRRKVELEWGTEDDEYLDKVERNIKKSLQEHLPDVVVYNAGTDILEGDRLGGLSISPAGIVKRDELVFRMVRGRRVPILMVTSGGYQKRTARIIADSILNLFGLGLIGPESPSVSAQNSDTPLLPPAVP

| Compound | Inhibition rate ([1]; 10 mg/kg by gavage for 7 days) | Swelling degree ([1]; 10 mg/kg by gavage for 7 days) | Swelling rate ([1]; 10 mg/kg by gavage for 7 days) | Inhibition rate ([1]; 30 mg/kg by gavage for 7 days) | Swelling degree ([1]; 30 mg/kg by gavage for 7 days) | Swelling rate ([1]; 30 mg/kg by gavage for 7 days) | pain response, second phasic response ([2]; 10 mg/kg) | pain response, second phasic response ([2]; 30 mg/kg (high-dose)) | pain response time, first phasic response ([2]; mice, 30 mg/kg intraperitoneally, Figure 13) | acetylation of histone H3 [3] | acetylation of α-tubulin [3] | IC50 [4] | levels of gene expression of iNOS ([5]; LPS-induced RAW264.7 cells, western blot) | levels of IL-6, IL-1β, TNF-α and NO ([5]; RAW264.7 cells preconditioned 1–100 µg/mL for 12 h, then LPS 1 µg/mL 12 h, ELISA) | safety in acute toxicity test [6] | IC50 [7] |
| --- | --- | --- | --- | --- | --- | --- | --- | --- | --- | --- | --- | --- | --- | --- | --- | --- |
| O=C(CCCCCCNC(=O)[C@H]1CCCN(C(=O)c2ccc(NC(=O)Nc3ccc(Cl)c(F)c3)c(F)c2)C1)NO [Compound 28g, (S)-1-(4-(3-(4-Chloro-3-fluorophenyl)ureido)-3-fluorobenzoyl)-N-(7-(hydroxyamino)-7-oxoheptyl)piperidine-3-carboxamide] | 44.39% | 8.7 ± 1.7 mg | 69.39% | 67.17% | 5.1 ± 0.9 mg | 39.50% | reduced the pain response | significantly reduced the pain response | did not significantly reduce the pain response time | without affecting histone H3 | induced an increase in acetylation of α-tubulin | 0.9 nM | suppressed | significantly reversed this change | good safety | 464 nM |
| O=C(CCCCCCNC(=O)[C@H]1CCCN(C(=O)c2ccc(NC(=O)Nc3cc(F)cc(F)c3)c(F)c2)C1)NO [Compound 28j, (S)-1-(4-(3-(3,5-Difluorophenyl)ureido)-3-fluorobenzoyl)-N-(7-(hydroxyamino)-7-oxoheptyl)piperidine-3-carboxamide] |  |  |  |  |  |  |  |  |  |  |  | 3.6 nM |  |  |  | 1050 nM |

Reference: paper PMC11412156 (Journal of medicinal chemistry, 2024)
